Measured values from US10253075B2, “WT1 antigenic polypeptide, and anti-tumor agent containing said polypeptide” (Tella, Inc., priority 2014, dated 2019).

Columns and labels:
Type in all cases: cell-based, human
[1] = test system: CD8-positive T cells (CTL); assay: Induction of antigen-specific CTL from PBMC; IFN-γ intracellular staining (ICS); set-up: key to induction of antigen-specific T cells: The symbol “+” in Table 7 indicates that the induction of antigen-specific T cells was observed; the symbol “−” indicates that the induction of antigen-specific T cells was not observed; conditions: for best peptide (%) / induction efficiency (%): CD8; for best peptide (%): percentage of the 6 kinds of PBMCs in which the peptide was evaluated as best peptide; for induction efficiency (%): proportion of the 6 kinds of donor PBMCs induced to antigen-specific T cells; for induction of antigen-specific T cells: induced T cell CD8, polypeptide 5 μM, IFN-γ-producing cells, day 21; for best peptide: highest ratio of antigen-specific IFN-γ-producing cells
Procedure: (§1) From the blood that was donated from 6 healthy human volunteers, human peripheral blood mononuclear cells (PBMC) were separated using a Ficoll-Paque (manufactured by Amersham Bioscience Inc.). The separated PBMC was cultured at 37° C. for 1 hour in a cell culture flask (manufactured by ED Biosciences) in a CO2 incubator using a serum-free AIM-V medium, thereby to remove non-adherent cells. Then, adherent cells remaining on the flask were started to culture in the AIM-V medium in the presence of a recombinant GM-CSF (10 ng/ml, manufactured by Wako Company) and a recombinant IL-4 (10 ng/ml, manufactured by Wako Company). After 3 days from the start of culture, the medium was replaced by an AIM-V medium supplemented with GM-CSF and IL-4, and dendritic cells (DC) were recovered using trypsin after 7 days from the start of culture. These DCs were used as antigen-presenting cells (APC) in the induction of antigen-specific T cells or in the analysis of antigen-specific cytokine (IFN-γ) production from T cells.
(§2) The foregoing PBMCs separated from healthy human volunteers were seeded to a density of 2×10^6 cells/well in a 24-well plate (manufactured by BD Biosciences). Then, culturing the cells were started in an AIM-V medium (1 ml/well) supplemented with each polypeptide (5 μM) derived from the WT1 protein described above inducing antigen-specific T cells, and serum at 37° C. in a CO2 incubator.
(§3) After 7 days from the start of culture, the above DC (autologous DC) was added to PBMC having the same derivation. Further, the medium was replaced with a serum-free AIM-V medium (manufactured by Life Technologies Inc.) supplemented with OK-432 (0.1 KE/ml, trade name: picibanil, manufactured by Chugai Pharmaceutical Co., Ltd.), and culture was performed for 2 hours. It should be noted that picibanil (OK-432) is a formulation obtained by treating an attenuated natural mutant strain (Su strain) of Group A Streptococcus with penicillin, and it is known that various cytokines (immune factor) are produced with use of picibanil to elicit an immune enhancing effect.
(§4) Then, after 2 hours of culture, the cells were treated for 50 minutes with addition of mitomycin C (MMC, manufactured by Kyowa Hakko Kirin Co., Ltd.). Furthermore, co-culture was performed in an AIM-V medium containing autologous DC and 5% human AB serum in which T cells are inactivated (Hokkaido Red Cross Center) in the presence of each polypeptide (5 μM) for inducing the antigen-specific T cells, thereby to re-stimulate the T cells. Two days later, a recombinant IL-2 (manufactured by Shionogi Pharmaceutical Institute Co., Ltd.) was added thereto to a final concentration of 10 U/ml. After 14 days from the start of co-culture, the autologous DC was pulsed with each polypeptide (5 μM) for inducing the antigen-specific T cells for 2 hours, and then treated with MMC. Such MMC treated cells as APC were used for re-stimulating T cells. In addition, on or after 14 days from the start of co-culture, culture was performed at the concentration of 20 U/ml of recombinant IL-2. After that, T cells on day 21 of the co-culture were collected by centrifugation or the like and subjected to an analysis of antigen-specific reactivity shown below.
(§5) T cells that were induced as described above (T cells on day 21 of the co-culture) and autologous DCs were seeded in the same well of a 96-well plate (manufactured by BD Biosciences) to a density of 5×10^4 cells/well and 5×10^3 cells/well, respectively. Then, the cells were cultured in the presence of each polypeptide (HE 4, KE 1, KE 5, H/K-HELP 1, H/K-HELP 2 or H/K-HELP 3) (5 μM) for the analysis of antigen-specific reactivity. In addition, a group without addition of such polypeptide was prepared as a control group. […]

[2] = test system: CD4-positive T cells (Th cells); assay: Induction of antigen-specific Th cells from PBMC; IFN-γ intracellular staining (ICS); set-up: key to induction of antigen-specific T cells: The symbol “+” in Table 7 indicates that the induction of antigen-specific T cells was observed; the symbol “−” indicates that the induction of antigen-specific T cells was not observed; conditions: for best peptide (%) / induction efficiency (%): CD4; for best peptide (%): percentage of the 6 kinds of PBMCs in which the peptide was evaluated as best peptide; for induction efficiency (%): proportion of the 6 kinds of donor PBMCs induced to antigen-specific T cells; for induction of antigen-specific T cells: induced T cell CD4, polypeptide 5 μM, IFN-γ-producing cells, day 21; for best peptide: highest ratio of antigen-specific IFN-γ-producing cells
Procedure: as §1, §2, §3, §4, §5

[3] = test system: CD4-positive T cells and CD8-positive T cells; assay: Induction of antigen-specific T cells from PBMC, CD4 and CD8 taken together; conditions: for best peptide (%): CD4 + CD8, percentage of PBMCs in which the peptide was evaluated as best peptide
Procedure: as §1, §2, §3
Then, after 2 hours of culture, the cells were treated for 50 minutes with addition of mitomycin C (MMC, manufactured by Kyowa Hakko Kirin Co., Ltd.). Furthermore, co-culture was performed in an AIM-V medium containing autologous DC and 5% human AB serum in which T cells are inactivated (Hokkaido Red Cross Center) in the presence of each polypeptide (5 μM) for inducing the antigen-specific T cells, thereby to re-stimulate the T cells. Two days later, a recombinant IL-2 (manufactured by Shionogi Pharmaceutical Institute Co., Ltd.) was added thereto to a final concentration of 10 U/ml. […]

| Sequence | best peptide (%) [1] | induction efficiency (%) [1] | induction of antigen-specific T cells ([1]; donor 1 PBMC) | induction of antigen-specific T cells ([1]; donor 2 PBMC) | induction of antigen-specific T cells ([1]; donor 3 PBMC) | induction of antigen-specific T cells ([1]; donor 4 PBMC) | induction of antigen-specific T cells ([1]; donor 5 PBMC) | induction of antigen-specific T cells ([1]; donor 6 PBMC) | best peptide (%) [2] | induction efficiency (%) [2] | induction of antigen-specific T cells ([2]; donor 1 PBMC) | induction of antigen-specific T cells ([2]; donor 2 PBMC) | induction of antigen-specific T cells ([2]; donor 3 PBMC) | induction of antigen-specific T cells ([2]; donor 4 PBMC) | induction of antigen-specific T cells ([2]; donor 5 PBMC) | induction of antigen-specific T cells ([2]; donor 6 PBMC) | best peptide (%) [3] | further results |
| --- | --- | --- | --- | --- | --- | --- | --- | --- | --- | --- | --- | --- | --- | --- | --- | --- | --- | --- |
| KRYFKLSHLQMHSRKHGGGGGRMFPNAPYL (Fusion polypeptide in which HE4, 5-Glycine linker and KE1 are fused in this order from the N-terminal) [H/K-HELP1, fused polypeptide: HE4, five-glycine linker, KE1 from the N-terminus] | 0.00% | 16.67% | − | − | − | − | + | − | 0.00% | 33.33% | + | − | − | − | + | − | 0.00% | activity of inducing antigen-specific T cells in CD4-positive and CD8-positive T cells, comparison in words ([3]; compared with Comparative Example 1 (mix of the epitopes), 6 donors): not different from those of Comparative Example 1 |
| KRYFKLSHLQMHSRKHGGGGGRMFPNAPYLGGGGGCYTWNQMNL (Fusion polypeptide in which HE4, 5-Glycine linker, KE1, 5-Glycine linker and KE5 are fused in this order from the N-terminal) [H/K-HELP2, fused polypeptide: HE 4, KE 1 and KE 5 from the N-terminus with five-glycine linkers] | 33.33% | 50.00% | + | − | + | − | − | + | 33.33% | 50.00% | − | + | + | − | + | − | 33.33% | best peptide ([1]; donor 1, CD8): H/K-HELP2; best peptide ([1]; donor 6, CD8): H/K-HELP2; best peptide ([2]; donor 2, CD4): H/K-HELP2; best peptide ([2]; donor 3, CD4): H/K-HELP2 |
| RMFPNAPYLGGGGGKRYFKLSHLQMHSRKHGGGGGCYTWNQMNL (Fusion polypeptide in which KE1, 5-Glycine linker, HE4, 5-Glycine linker and KE5 are fused in this order from the N-terminal) [H/K-HELP3, fused polypeptide: KE 1, HE 4 and KE 5 from the N-terminus with five-glycine linkers] | 50.00% | 50.00% | − | − | + | + | + | − | 50.00% | 66.67% | + | − | + | + | + | − | 50.00% | best peptide ([1]; donor 3, CD8): H/K-HELP3; best peptide ([1]; donor 4, CD8): H/K-HELP3; best peptide ([1]; donor 5, CD8): H/K-HELP3; stimulation of CD4-positive T cells of different derivation to induce IFN-γ-producing Th1 cells, comparison in words ([2]; compared with Example 1, 6 donors): more numerous CD4-positive T cells of different derivation are stimulated, as compared to Example 1; best peptide ([2]; donor 1, CD4): H/K-HELP3; best peptide ([2]; donor 4, CD4): H/K-HELP3; best peptide ([2]; donor 5, CD4): H/K-HELP3 |
